Source: the supplement of paper PMC10307832

Assays:
Assay in all cases: relative viability (nuclei count vs DMSO), 5 days (fraction); higher = more cells survive
[1] = system: HCC-44
Method in brief: (§1)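 Medians of duplicate plates are given as relative viability. That measure is the nuclei count in treated wells divided by the count in vehicle wells. Counts were taken on 4× images of lung cancer cell lines in 1536-well plates, 5 days after pin-tool dosing the day after seeding with one drug alone or a fixed anchor-drug dose plus five library-drug doses (not always all listed) in √10 steps.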

[2] = system: H3255
Method in brief: as §1

[3] = system: NCI-H596
Method in brief: as §1

[4] = system: NCI-H1793
Method in brief: as §1

[5] = system: LU99A
Method in brief: as §1

[6] = system: LK-2
Method in brief: as §1

[7] = system: PC-14
Method in brief: as §1

[8] = system: NCI-H460
Method in brief: as §1

[9] = system: 201T
Method in brief: as §1

[10] = system: NCI-H727
Method in brief: as §1

[11] = system: NCI-H2347
Method in brief: as §1

[12] = system: NCI-H23
Method in brief: as §1

[13] = system: LCLC-103H
Method in brief: as §1

[14] = system: LC-2-ad
Method in brief: as §1

[15] = system: A-427
Method in brief: as §1

[16] = system: SW 900
Method in brief: as §1

[17] = system: LCLC-97TM1
Method in brief: as §1

In the case of Nc1ccn([C@@H]2O[C@H](CO)[C@@H](O)[C@@H]2O)c(=O)n1 [Cytarabine] + NC(=O)Nc1cc(-c2cccc(F)c2)sc1C(=O)N[C@H]1CCCNC1 [AZD7762] (partner 0.2 µM), the relative viability ([1]; first compound 0.005 µM) is reported as 1.07, the relative viability ([1]; first compound 0.01581 µM) is reported as 0.916 and the relative viability ([1]; first compound 0.05 µM) is reported as 0.476. For the same compound, the relative viability ([1]; first compound 0.1581 µM) was 0.332, the relative viability ([1]; first compound 0.5 µM) was 0.249 and the relative viability ([2]; first compound 0.005 µM) was 0.945. The relative viability ([2]; first compound 0.01581 µM) was 0.812, the relative viability ([2]; first compound 0.05 µM) was 0.764 and the relative viability ([2]; first compound 0.1581 µM) was 0.583. For the same compound, the relative viability ([2]; first compound 0.5 µM) was 0.551, the relative viability ([3]; first compound 0.005 µM) was 1 and the relative viability ([3]; first compound 0.01581 µM) was 1.01. For the same compound, the relative viability ([3]; first compound 0.05 µM) was 0.787, the relative viability ([3]; first compound 0.1581 µM) was 0.419 and the relative viability ([3]; first compound 0.5 µM) was 0.343. For the same compound, the relative viability ([4]; first compound 0.005 µM) was 0.304, the relative viability ([4]; first compound 0.01581 µM) was 0.417 and the relative viability ([4]; first compound 0.05 µM) was 0.341. It also gave a relative viability ([4]; first compound 0.1581 µM) of 0.149, a relative viability ([4]; first compound 0.5 µM) of 0.111 and a relative viability ([5]; first compound 0.005 µM) of 0.444. The relative viability ([5]; first compound 0.01581 µM) was 0.362, the relative viability ([5]; first compound 0.05 µM) was 0.305 and the relative viability ([5]; first compound 0.1581 µM) was 0.352. It also gave a relative viability ([5]; first compound 0.5 µM) of 0.115, a relative viability ([6]; first compound 0.005 µM) of 0.3 and a relative viability ([6]; first compound 0.01581 µM) of 0.13. The relative viability ([6]; first compound 0.05 µM) was 0.0997, the relative viability ([6]; first compound 0.1581 µM) was 0.0979 and the relative viability ([6]; first compound 0.5 µM) was 0.12. For the same compound, the relative viability ([7]; first compound 0.005 µM) was 0.346, the relative viability ([7]; first compound 0.01581 µM) was 0.234 and the relative viability ([7]; first compound 0.05 µM) was 0.136. For the same compound, the relative viability ([7]; first compound 0.1581 µM) was 0.0783, the relative viability ([7]; first compound 0.5 µM) was 0.0484 and the relative viability ([8]; first compound 0.005 µM) was 0.209. For the same compound, the relative viability ([8]; first compound 0.01581 µM) was 0.0904, the relative viability ([8]; first compound 0.05 µM) was 0.0497 and the relative viability ([8]; first compound 0.1581 µM) was 0.0319. For the same compound, the relative viability ([8]; first compound 0.5 µM) was 0.0286, the relative viability ([9]; first compound 0.005 µM) was 0.635 and the relative viability ([9]; first compound 0.01581 µM) was 0.596. It also gave a relative viability ([9]; first compound 0.05 µM) of 0.653, a relative viability ([9]; first compound 0.1581 µM) of 0.342 and a relative viability ([9]; first compound 0.5 µM) of 0.265. The relative viability ([10]; first compound 0.005 µM) was 0.518, the relative viability ([10]; first compound 0.01581 µM) was 0.565 and the relative viability ([10]; first compound 0.05 µM) was 0.377. For the same compound, the relative viability ([10]; first compound 0.1581 µM) was 0.361, the relative viability ([10]; first compound 0.5 µM) was 0.418 and the relative viability ([11]; first compound 0.005 µM) was 0.721. For the same compound, the relative viability ([11]; first compound 0.01581 µM) was 0.525, the relative viability ([11]; first compound 0.05 µM) was 0.47 and the relative viability ([11]; first compound 0.1581 µM) was 0.369. The relative viability ([11]; first compound 0.5 µM) was 0.286, the relative viability ([12]; first compound 0.005 µM) was 0.227 and the relative viability ([12]; first compound 0.01581 µM) was 0.171. For the same compound, the relative viability ([12]; first compound 0.05 µM) was 0.202, the relative viability ([12]; first compound 0.1581 µM) was 0.126 and the relative viability ([12]; first compound 0.5 µM) was 0.134. The relative viability ([13]; first compound 0.005 µM) was 0.763, the relative viability ([13]; first compound 0.01581 µM) was 0.704 and the relative viability ([13]; first compound 0.05 µM) was 0.751. It also gave a relative viability ([13]; first compound 0.1581 µM) of 0.469, a relative viability ([13]; first compound 0.5 µM) of 0.369 and a relative viability ([14]; first compound 0.005 µM) of 0.811. The relative viability ([14]; first compound 0.01581 µM) was 0.681, the relative viability ([14]; first compound 0.05 µM) was 0.674 and the relative viability ([14]; first compound 0.1581 µM) was 0.245. It also gave a relative viability ([14]; first compound 0.5 µM) of 0.208, a relative viability ([15]; first compound 0.005 µM) of 0.343 and a relative viability ([15]; first compound 0.01581 µM) of 0.246. It also gave a relative viability ([15]; first compound 0.05 µM) of 0.218, a relative viability ([15]; first compound 0.1581 µM) of 0.184 and a relative viability ([15]; first compound 0.5 µM) of 0.184. For the same compound, the relative viability ([16]; first compound 0.005 µM) was 0.741, the relative viability ([16]; first compound 0.01581 µM) was 0.546 and the relative viability ([16]; first compound 0.05 µM) was 0.451. It also gave a relative viability ([16]; first compound 0.1581 µM) of 0.191, a relative viability ([16]; first compound 0.5 µM) of 0.16 and a relative viability ([17]; first compound 0.005 µM) of 0.14. The relative viability ([17]; first compound 0.01581 µM) was 0.0846, the relative viability ([17]; first compound 0.05 µM) was 0.0944 and the relative viability ([17]; first compound 0.1581 µM) was 0.0643. For the same compound, the relative viability ([17]; first compound 0.5 µM) was 0.0575.
